Calls of active or inactive are those of the source. No cut-off for these calls is given here.
Columns and labels:
[1] = Cytotoxicity against human MCF7 cells assessed as cell growth inhibition at 10 uM after 48 hrs relative to control; type: cell-based
[2] = target: CYP2D6 (Homo sapiens, UniProt P10635); test: Inhibition of CYP2D6 (unknown origin) at 10 uM relative to control; type: ADME
[3] = target: T1, SIRT7 (Homo sapiens, UniProt Q9NRC8); test: Inhibition of SIRT7 (unknown origin) at 10 uM relative to control
T1 sequence (Q9NRC8 whole entry): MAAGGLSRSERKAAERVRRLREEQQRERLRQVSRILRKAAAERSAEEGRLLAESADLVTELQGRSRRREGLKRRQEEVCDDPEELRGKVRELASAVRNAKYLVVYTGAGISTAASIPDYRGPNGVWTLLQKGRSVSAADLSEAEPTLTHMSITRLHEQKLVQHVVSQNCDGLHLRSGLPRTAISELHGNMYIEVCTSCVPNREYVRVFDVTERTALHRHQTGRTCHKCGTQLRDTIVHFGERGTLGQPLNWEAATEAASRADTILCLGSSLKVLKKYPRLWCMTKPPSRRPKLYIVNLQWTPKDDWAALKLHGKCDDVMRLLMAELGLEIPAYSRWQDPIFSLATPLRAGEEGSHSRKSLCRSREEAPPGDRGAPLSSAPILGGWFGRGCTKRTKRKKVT

[4] = target: HDAC9 (Homo sapiens, UniProt Q9UKV0); test: Inhibition of HDAC9 (unknown origin) at 10 uM relative to control
HDAC9, sequence (Q9UKV0 whole entry): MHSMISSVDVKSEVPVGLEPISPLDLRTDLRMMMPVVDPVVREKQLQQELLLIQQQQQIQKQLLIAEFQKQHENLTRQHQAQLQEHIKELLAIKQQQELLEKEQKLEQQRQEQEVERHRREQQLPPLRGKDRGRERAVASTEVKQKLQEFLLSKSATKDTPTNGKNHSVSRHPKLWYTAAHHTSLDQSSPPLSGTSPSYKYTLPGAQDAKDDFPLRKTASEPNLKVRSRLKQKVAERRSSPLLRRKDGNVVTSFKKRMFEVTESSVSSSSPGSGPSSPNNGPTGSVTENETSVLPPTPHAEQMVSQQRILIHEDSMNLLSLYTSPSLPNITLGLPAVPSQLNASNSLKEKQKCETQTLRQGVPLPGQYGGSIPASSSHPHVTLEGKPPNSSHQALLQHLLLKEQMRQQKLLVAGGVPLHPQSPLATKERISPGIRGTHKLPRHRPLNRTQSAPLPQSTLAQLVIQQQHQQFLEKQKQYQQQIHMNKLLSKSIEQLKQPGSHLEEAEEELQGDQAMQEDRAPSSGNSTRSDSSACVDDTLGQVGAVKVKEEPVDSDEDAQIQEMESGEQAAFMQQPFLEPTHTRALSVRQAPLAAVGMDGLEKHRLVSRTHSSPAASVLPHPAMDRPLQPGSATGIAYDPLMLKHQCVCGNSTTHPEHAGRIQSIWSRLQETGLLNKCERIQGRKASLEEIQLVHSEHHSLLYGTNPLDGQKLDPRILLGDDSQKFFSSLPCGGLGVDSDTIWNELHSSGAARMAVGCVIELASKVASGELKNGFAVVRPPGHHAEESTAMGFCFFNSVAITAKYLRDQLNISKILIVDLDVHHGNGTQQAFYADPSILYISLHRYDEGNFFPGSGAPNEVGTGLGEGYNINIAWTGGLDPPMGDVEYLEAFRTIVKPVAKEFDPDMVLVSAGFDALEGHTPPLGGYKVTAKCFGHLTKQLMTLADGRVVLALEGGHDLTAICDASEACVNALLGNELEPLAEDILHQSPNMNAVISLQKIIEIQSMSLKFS

[5] = target: T2, AMP-activated protein kinase, AMPK (Homo sapiens) (UniProt P54646+O43741+P54619+Q9UGJ0+Q9Y478+Q13131+Q9UGI9); test: Activation of AMPK in human HepG2 cells assessed as ratio of phosphorylated AMPK at 10 uM measured after 24 hrs by Western blot analysis; type: cell-based; conditions: filed as activator
[6] = target: T2, AMP-activated protein kinase, AMPK (Homo sapiens); test: Activation of AMPK in human HepG2 cells assessed as ratio of phosphorylated ACC at 10 uM measured after 24 hrs by Western blot analysis; type: cell-based; conditions: filed as activator
[7] = Toxicity in F344 rat assessed as increase in heart and body weight ratio at 50 to 100 ug per 100 g body weight, ig administered daily for 3 days; conditions: in vivo, po, 72 h, dose 50-100 µg, time 3 day
[8] = Toxicity in F344 rat assessed as reduction in liver and body weight ratio at 50 to 100 ug per 100 g body weight, ig administered daily for 3 days; type: tissue-based; conditions: in vivo, po, 72 h, dose 50-100 µg, time 3 day
[9] = Toxicity in F344 rat assessed as effect on serum AST/GOT level at 50 ug per 100 g of body weight, ig administered daily for 3 days (reference value: 153 +/- 11 U/L); conditions: in vivo, po, 72 h, dose 50 µg, time 3 day
[10] = Toxicity in F344 rat assessed as effect on serum AST/GOT level at 100 ug per 100 g body weight, ig administered daily for 3 days (reference value: 153 +/- 11 U/L); conditions: in vivo, po, 72 h, dose 100 µg, time 3 day
[11] = Toxicity in F344 rat assessed as effect on serum AST/GOT level at 75 ug per 100 g body weight, ip administered daily for 3 days (reference value: 153 +/- 11 U/L); type: organism-based; conditions: in vivo, 72 h, dose 75 µg, time 3 day
[12] = Toxicity in F344 rat assessed as effect on serum ALT/GPT level at 75 ug per 100 g body weight, ig administered daily for 3 days (reference value: 46 +/- 4 U/L); conditions: in vivo, po, 72 h, dose 75 µg, time 3 day
[13] = Toxicity in F344 rat assessed as effect on serum ALT/GPT level at 100 ug per 100 g body weight, ig administered daily for 3 days (reference value: 46 +/- 4 U/L); conditions: in vivo, po, 72 h, dose 100 µg, time 3 day
[14] = Toxicity in F344 rat assessed as effect on serum ALT/GPT level at 75 ug per 100 g body weight, ip administered daily for 3 days (reference value: 46 +/- 4 U/L); type: organism-based; conditions: in vivo, 72 h, dose 75 µg, time 3 day
[15] = Toxicity in F344 rat assessed as effect on serum bilirubin level at 50 ug per 100 g body weight, ig administered daily for 3 days (reference value: 1.4 +/- 0.2 mg/dl); conditions: in vivo, po, 72 h, dose 50 µg, time 3 day
[16] = Toxicity in F344 rat assessed as effect on serum bilirubin level at 75 ug per 100 g body weight, ig administered daily for 3 days (reference value: 1.4 +/- 0.2 mg/dl); conditions: in vivo, po, 72 h, dose 75 µg, time 3 day
[17] = Toxicity in F344 rat assessed as effect on serum bilirubin level at 100 ug per 100 g body weight, ig administered daily for 3 days (reference value: 1.4 +/- 0.2 mg/dl); conditions: in vivo, po, 72 h, dose 100 µg, time 3 day
[18] = Toxicity in F344 rat assessed as effect on serum bilirubin level at 75 ug per 100 g body weight, ip administered daily for 3 days (reference value: 1.4 +/- 0.2 mg/dl); type: organism-based; conditions: in vivo, 72 h, dose 75 µg, time 3 day
[19] = Toxicity in F344 rat assessed as effect on serum glucose level at 75 ug per 100 g body weight, ig administered daily for 3 days (reference value: 151 +/- 13.5 mg/dl); conditions: in vivo, po, 72 h, dose 75 µg, time 3 day
[20] = Toxicity in F344 rat assessed as effect on serum glucose level at 100 ug per 100 g body weight, ig administered daily for 3 days (reference value: 151 +/- 13.5 mg/dl); conditions: in vivo, po, 72 h, dose 100 µg, time 3 day
[21] = Toxicity in F344 rat assessed as effect on serum glucose level at 75 ug per 100 g body weight, ip administered daily for 3 days (reference value: 151 +/- 13.5 mg/dl); type: organism-based; conditions: in vivo, 72 h, dose 75 µg, time 3 day
[22] = Toxicity in F344 rat assessed as effect on serum cholesterol level at 50 ug per 100 g body weight, ig administered daily for 3 days (reference value: 67.2 +/- 2.5 mg/dl); conditions: in vivo, po, 72 h, dose 50 µg, time 3 day
[23] = Toxicity in F344 rat assessed as effect on serum cholesterol level at 75 ug per 100 g body weight, ig administered daily for 3 days (reference value: 67.2 +/- 2.5 mg/dl); conditions: in vivo, po, 72 h, dose 75 µg, time 3 day
[24] = Toxicity in F344 rat assessed as effect on serum cholesterol level at 100 ug per 100 g body weight, ig administered daily for 3 days (reference value: 67.2 +/- 2.5 mg/dl); conditions: in vivo, po, 72 h, dose 100 µg, time 3 day
[25] = Toxicity in F344 rat assessed as effect on serum cholesterol level at 75 ug per 100 g body weight, ip administered daily for 3 days (reference value: 67.2 +/- 2.5 mg/dl); type: organism-based; conditions: in vivo, 72 h, dose 75 µg, time 3 day
[26] = Toxicity in F344 rat assessed as effect on serum triglycerides level at 75 ug per 100 g body weight, ig administered daily for 3 days (reference value: 86.8 +/- 10.4 mg/dl); conditions: in vivo, po, 72 h, dose 75 µg, time 3 day
[27] = Toxicity in F344 rat assessed as effect on serum triglycerides level at 100 ug per 100 g body weight, ig administered daily for 3 days (reference value: 86.8 +/- 10.4 mg/dl); conditions: in vivo, po, 72 h, dose 100 µg, time 3 day
[28] = Toxicity in F344 rat assessed as effect on serum triglycerides level at 75 ug per 100 g body weight, ip administered daily for 3 days (reference value: 86.8 +/- 10.4 mg/dl); type: organism-based; conditions: in vivo, 72 h, dose 75 µg, time 3 day

CYP2D6, sequence (P10635 whole entry): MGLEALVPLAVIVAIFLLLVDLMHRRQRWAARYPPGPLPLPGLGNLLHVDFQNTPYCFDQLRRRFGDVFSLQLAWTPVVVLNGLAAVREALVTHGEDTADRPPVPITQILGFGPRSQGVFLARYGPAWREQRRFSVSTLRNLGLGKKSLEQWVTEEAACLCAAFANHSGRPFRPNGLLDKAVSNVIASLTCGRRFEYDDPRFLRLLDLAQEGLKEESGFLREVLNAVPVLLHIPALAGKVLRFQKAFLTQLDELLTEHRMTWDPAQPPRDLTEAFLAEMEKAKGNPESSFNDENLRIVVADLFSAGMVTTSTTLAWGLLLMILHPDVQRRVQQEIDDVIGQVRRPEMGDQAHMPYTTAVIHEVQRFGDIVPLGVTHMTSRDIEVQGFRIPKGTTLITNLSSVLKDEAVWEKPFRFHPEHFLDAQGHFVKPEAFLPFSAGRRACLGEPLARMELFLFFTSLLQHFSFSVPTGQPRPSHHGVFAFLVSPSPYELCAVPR

Compound `Cc1cc(OCC(=O)O)cc(C)c1Cc1ccc(O)cc1` has an inhibition at 48 h, 10 µM [1] of less than 50%, an inhibition at 10 µM [2] of less than 50% and an inhibition at 10 µM [3] of less than 50%. For the same compound, the inhibition at 10 µM [4] was less than 50%.

For `CC(=O)Nc1ccc(Cc2c(C)cc(OCC(=O)O)cc2C)cc1C(C)C`, the inhibition at 48 h, 10 µM [1] was less than 50%, the inhibition at 10 µM [2] was less than 50% and the inhibition at 10 µM [3] was less than 50%. For the same compound, the inhibition at 10 µM [4] was less than 50%, the Activity [5] was “Active” and the Activity [6] was “Active”. The Activity [7] was “Non-Toxic”, the Activity [8] was “Non-Toxic” and the Activity [9] was 141 U/L. It also gave an Activity [10] of 108 U/L, an Activity [11] of 134 U/L and an Activity [12] of 46 U/L. The Activity [13] was 37 U/L, the Activity [14] was 38 U/L and the Activity [15] was 1.1 mg/dL. For the same compound, the Activity [16] was 0.9 mg/dL, the Activity [17] was 1.1 mg/dL and the Activity [18] was 1.5 mg/dL. It also gave an Activity [19] of 132 mg/dL, an Activity [20] of 164 mg/dL and an Activity [21] of 132 mg/dL. For the same compound, the Activity [22] was 68 mg/dL, the Activity [23] was 71.4 mg/dL and the Activity [24] was 67.6 mg/dL. For the same compound, the Activity [25] was 71.4 mg/dL, the Activity [26] was 67 mg/dL and the Activity [27] was 62.8 mg/dL. For the same compound, the Activity [28] was 74.2 mg/dL.

With `Cc1cc(OCC(=O)O)cc(C)c1Cc1ccc(N)c(C(C)C)c1` the inhibition at 48 h, 10 µM [1] was less than 50%, the inhibition at 10 µM [2] was less than 50% and the inhibition at 10 µM [3] was less than 50%. The inhibition at 10 µM [4] was less than 50%, the Activity [5] was “Active” and the Activity [6] was “Active”. For the same compound, the Activity [7] was “Non-Toxic”, the Activity [8] was “Non-Toxic” and the Activity [9] was 134 U/L. For the same compound, the Activity [10] was 102 U/L, the Activity [11] was 123 U/L and the Activity [12] was 43 U/L. The Activity [13] was 42 U/L, the Activity [14] was 36 U/L and the Activity [15] was 1.3 mg/dL. It also gave an Activity [16] of 1.6 mg/dL, an Activity [17] of 1 mg/dL and an Activity [18] of 1.1 mg/dL. It also gave an Activity [19] of 153 mg/dL, an Activity [20] of 166 mg/dL and an Activity [21] of 129 mg/dL. For the same compound, the Activity [22] was 69.5 mg/dL, the Activity [23] was 68.6 mg/dL and the Activity [24] was 70.1 mg/dL. It also gave an Activity [25] of 69.6 mg/dL, an Activity [26] of 74 mg/dL and an Activity [27] of 67.8 mg/dL. It also gave an Activity [28] of 79.6 mg/dL.
